# Assay results: US20240398805A1, “QUINAZOLINE DERIVED COMPOUNDS AS EGFR INHIBITORS AND THEIR USES THEREOF” (ACCUTAR BIOTECHNOLOGY INC., priority 2021, published 2024)
# Assays:
# Assay type in all cases: cell-based
# [1] = test system: HCC827-YVMA cells (human ERBB2 exon20 insertion mutant A775_G776ins YVMA); test: Cell growth inhibition (CellTiter-Glo, 3 days) in HCC827-YVMA; settings: 72 h, 3 days after administration
# Procedure, shortened: (§1)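 Growth inhibition used a CellTiter-Glo luminescence read-out after 3 days of compound exposure at various concentrations. Cells were plated the day before at 5000/well in RPMI plus 10% FBS. The lines are HCC827 transduced by lentivirus with codon-optimized EGFR ASV or ERBB2 YVMA exon 20 insertions.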
# [2] = test system: HCC827-ASV cells (human EGFR exon 20 insertion mutant A769_D770insASV); test: Cell growth inhibition (CellTiter-Glo, 3 days) in HCC827-ASV; settings: 72 h, 3 days after administration
# Procedure, shortened: as §1
# HCC827 cells = test: Cell growth inhibition (CellTiter-Glo, 3 days) in HCC827; settings: Homo sapiens, 72 h, 3 days after administration
# Procedure, shortened: (§2)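 HCC827 cells in RPMI/10% FBS and A431 cells in DMEM/10% FBS were seeded at 5000 cells/well and left overnight. Compound was then added over a concentration range for 3 days of incubation, and viability was read by CellTiter-Glo luminescence.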
# [3] = test system: HCC827-SVD cells (human EGFR exon 20 insertion mutant D770_N771 insSVD); test: Cell growth inhibition (CellTiter-Glo, 3 days) in HCC827-SVD; settings: 72 h, 3 days after administration
# Procedure, shortened: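 HCC827 cells carrying lentiviral codon-optimized EGFR D770_N771 insSVD, with endogenous EGFR knocked out by CRISPR (single clone), seeded at 5000 cells/well in RPMI with 10% FBS. Viability read by CellTiter-Glo luminescence.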
# A431 cells = test: Cell growth inhibition (CellTiter-Glo, 3 days) in A431; settings: Homo sapiens, A-431, 72 h, 3 days after administration
# Procedure, shortened: as §2
GI50 [1],GI50 [2],GI50 (HCC827 cells),GI50 [3],GI50 (A431 cells),SMILES
300 to 600 nM,100 to 300 nM,600 to 1000 nM,100 to 300 nM,600 to 1000 nM,"C=CC(=O)N1CCC(Nc2cc3c(Nc4ccc(Oc5ccnc(N6CC(CO)C6)c5)cc4F)ncnc3cc2OC)CC1 [Example 140, 1-(4-((4-((2-fluoro-4-((2-(3-(hydroxymethyl)azetidin-1-yl)pyridin-4-yl)oxy)phenyl)amino)-7-methoxyquinazolin-6-yl)amino)piperidin-1-yl)prop-2-en-1-one]"
30 to 60 nM,< 30 nM,100 to 300 nM,30 to 60 nM,≥ 1000 nM,"C=CC(=O)N1CCC(Nc2cc3c(Nc4ccc(Oc5ccnc(N6CC(C#N)C6)c5)cc4F)ncnc3cc2OC)CC1 [Example 141, 1-(4-(4-((6-((1-acryloylpiperidin-4-yl)amino)-7-methoxyquinazolin-4-yl)amino)-3-fluorophenoxy)pyridin-2-yl)azetidine-3-carbonitrile]"
< 30 nM,< 30 nM,100 to 300 nM,< 30 nM,≥ 1000 nM,"C=CC(=O)N1CCC(Nc2cc3c(Nc4ccc(Oc5ccnc(N6CC(COC)C6)c5)cc4F)ncnc3cc2OC)CC1 [Example 142, 1-(4-((4-((2-fluoro-4-((2-(3-(methoxymethyl)azetidin-1-yl)pyridin-4-yl)oxy)phenyl)amino)-7-methoxyquinazolin-6-yl)amino)piperidin-1-yl)prop-2-en-1-one]"
300 to 600 nM,300 to 600 nM,≥ 1000 nM,300 to 600 nM,≥ 1000 nM,"C=CC(=O)N1CCC(Nc2cc3c(Nc4ccc(Oc5ccnc(N6CC(S(C)(=O)=O)C6)c5)cc4F)ncnc3cc2OC)CC1 [Example 143, 1-(4-((4-((2-fluoro-4-((2-(3-(methylsulfonyl)azetidin-1-yl)pyridin-4-yl)oxy)phenyl)amino)-7-methoxyquinazolin-6-yl)amino)piperidin-1-yl)prop-2-en-1-one]"
≥ 1000 nM,600 to 1000 nM,≥ 1000 nM,600 to 1000 nM,≥ 1000 nM,"C=CC(=O)N1CCC(Nc2cc3c(Nc4ccc(Oc5ccnc(N6CC(C(N)=O)C6)c5)cc4F)ncnc3cc2OC)CC1 [Example 144, 1-(4-(4-((6-((1-acryloylpiperidin-4-yl)amino)-7-methoxyquinazolin-4-yl)amino)-3-fluorophenoxy)pyridin-2-yl)azetidine-3-carboxamide]"
≥ 1000 nM,≥ 1000 nM,≥ 1000 nM,≥ 1000 nM,≥ 1000 nM,"C=CC(=O)N1CCC(Nc2cc3c(Nc4ccc(Oc5ccnc(N6CC(NC(C)=O)C6)c5)cc4F)ncnc3cc2OC)CC1 [Example 145, N-(1-(4-(4-((6-((1-acryloylpiperidin-4-yl)amino)-7-methoxyquinazolin-4-yl)amino)-3-fluorophenoxy)pyridin-2-yl)azetidin-3-yl)acetamide]"
100 to 300 nM,60 to 100 nM,600 to 1000 nM,60 to 100 nM,≥ 1000 nM,"C=CC(=O)N1CCC(Nc2cc3c(Nc4ccc(Oc5ccnc(N6CC(C(C)(C)O)C6)c5)cc4F)ncnc3cc2OC)CC1 [Example 146, 1-(4-((4-((2-fluoro-4-((2-(3-(2-hydroxypropan-2-yl)azetidin-1-yl)pyridin-4-yl)oxy)phenyl)amino)-7-methoxyquinazolin-6-yl)amino)piperidin-1-yl)prop-2-en-1-one]"
60 to 100 nM,60 to 100 nM,100 to 300 nM,60 to 100 nM,≥ 1000 nM,"C=CC(=O)N1CCC(Nc2cc3c(Nc4ccc(Oc5ccnc(N6CC(N(C)C)C6)c5)cc4F)ncnc3cc2OC)CC1 [Example 147, 1-(4-((4-((4-((2-(3-(dimethylamino)azetidin-1-yl)pyridin-4-yl)oxy)-2-fluorophenyl)amino)-7-methoxyquinazolin-6-yl)amino)piperidin-1-yl)prop-2-en-1-one]"
30 to 60 nM,30 to 60 nM,100 to 300 nM,30 to 60 nM,300 to 600 nM,"C=CC(=O)N1CCC(Nc2cc3c(Nc4ccc(Oc5ccnc(N6CC(OC(C)C)C6)c5)cc4F)ncnc3cc2OC)CC1 [Example 148, 1-(4-((4-((2-fluoro-4-((2-(3-isopropoxyazetidin-1-yl)pyridin-4-yl)oxy)phenyl)amino)-7-methoxyquinazolin-6-yl)amino)piperidin-1-yl)prop-2-en-1-one]"
60 to 100 nM,30 to 60 nM,100 to 300 nM,30 to 60 nM,100 to 300 nM,"C=CC(=O)N1CCC(Nc2cc3c(Nc4ccc(Oc5ccnc(N6CCC(C)(O)C6)c5)cc4F)ncnc3cc2OC)CC1 (centres unmarked) [Example 149, 1-(4-((4-((2-fluoro-4-((2-(3-hydroxy-3-methylpyrrolidin-1-yl)pyridin-4-yl)oxy)phenyl)amino)-7-methoxyquinazolin-6-yl)amino)piperidin-1-yl)prop-2-en-1-one]"
60 to 100 nM,< 30 nM,600 to 1000 nM,60 to 100 nM,≥ 1000 nM,"C=CC(=O)N1CCC(Oc2cc3c(Nc4ccc(Oc5ccnc(N6C[C@@H](C)O[C@@H](C)C6)c5)cc4F)ncnc3cc2OC)CC1 [Example 152, 1-(4-((4-((4-((2-((2R,6S)-2,6-dimethylmorpholino)pyridin-4-yl)oxy)-2-fluorophenyl)amino)-7-methoxyquinazolin-6-yl)oxy)piperidin-1-yl)prop-2-en-1-one]"
30 to 60 nM,< 30 nM,< 30 nM,< 30 nM,300 to 600 nM,"C=CC(=O)N1CCC(Nc2cc3c(Nc4ccc(Oc5ccnc(N6CCC(C)(C)C6)c5)cc4F)ncnc3cc2OC)CC1 [Example 153, 1-(4-((4-((4-((2-(3,3-dimethylpyrrolidin-1-yl)pyridin-4-yl)oxy)-2-fluorophenyl)amino)-7-methoxyquinazolin-6-yl)amino)piperidin-1-yl)prop-2-en-1-one]"
300 to 600 nM,100 to 300 nM,≥ 1000 nM,300 to 600 nM,≥ 1000 nM,"C=CC(=O)N1CCC(Nc2cc3c(Nc4ccc(Oc5ccnc(N6C[C@@H](C)N[C@@H](C)C6)c5)cc4F)ncnc3cc2OC)CC1 [Example 154, 1-(4-((4-((4-((2-((3R,5S)-3,5-dimethylpiperazin-1-yl)pyridin-4-yl)oxy)-2-fluorophenyl)amino)-7-methoxyquinazolin-6-yl)amino)piperidin-1-yl)prop-2-en-1-one]"
100 to 300 nM,100 to 300 nM,≥ 1000 nM,100 to 300 nM,≥ 1000 nM,"C=CC(=O)N1CCC(Nc2cc3c(Nc4ccc(Oc5ccnc(N6CCC(CO)(CO)C6)c5)cc4F)ncnc3cc2OC)CC1 [Example 155, 1-(4-((4-((4-((2-(3,3-bis(hydroxymethyl)pyrrolidin-1-yl)pyridin-4-yl)oxy)-2-fluorophenyl)amino)-7-methoxyquinazolin-6-yl)amino)piperidin-1-yl)prop-2-en-1-one]"
100 to 300 nM,100 to 300 nM,≥ 1000 nM,100 to 300 nM,≥ 1000 nM,"C=CC(=O)N1CCC(Oc2cc3c(Nc4ccc(Oc5ccnc(N6C[C@@H](C)N(C)[C@@H](C)C6)c5)cc4F)ncnc3cc2OC)CC1 [Example 156, 1-(4-((4-((2-fluoro-4-((2-((3R,5S)-3,4,5-trimethylpiperazin-1-yl)pyridin-4-yl)oxy)phenyl)amino)-7-methoxyquinazolin-6-yl)oxy)piperidin-1-yl)prop-2-en-1-one]"
≥ 1000 nM,≥ 1000 nM,≥ 1000 nM,≥ 1000 nM,≥ 1000 nM,"C=CC(=O)N1CCC(Oc2cc3c(Nc4ccc(Oc5ccnc(N6CCN(C(C)C)CC6)c5)cc4F)ncnc3cc2OC)CC1 [Example 157, 1-(4-((4-((2-fluoro-4-((2-(4-isopropylpiperazin-1-yl)pyridin-4-yl)oxy)phenyl)amino)-7-methoxyquinazolin-6-yl)oxy)piperidin-1-yl)prop-2-en-1-one]"
300 to 600 nM,100 to 300 nM,600 to 1000 nM,60 to 100 nM,≥ 1000 nM,"C=CC(=O)N1CCC(Nc2cc3c(Nc4ccc(Oc5ccnc(N6C[C@H](C)C[C@H](C)C6)c5)cc4F)ncnc3cc2OC)CC1 [Example 158, 1-(4-((4-((4-((2-((3S,5R)-3,5-dimethylpiperidin-1-yl)pyridin-4-yl)oxy)-2-fluorophenyl)amino)-7-methoxyquinazolin-6-yl)amino)piperidin-1-yl)prop-2-en-1-one]"
60 to 100 nM,30 to 60 nM,100 to 300 nM,30 to 60 nM,300 to 600 nM,"C=CC(=O)N1CCC(Nc2cc3c(Nc4ccc(Oc5ccnc(N6CCC(OC)C(C)(C)C6)c5)cc4F)ncnc3cc2OC)CC1 (centres unmarked) [Example 159, 1-(4-((4-((2-fluoro-4-((2-(4-methoxy-3,3-dimethylpiperidin-1-yl)pyridin-4-yl)oxy)phenyl)amino)-7-methoxyquinazolin-6-yl)amino)piperidin-1-yl)prop-2-en-1-one]"
< 30 nM,< 30 nM,30 to 60 nM,< 30 nM,60 to 100 nM,"C=CC(=O)N1CCC(Nc2cc3c(Nc4ccc(Oc5ccnc(N6CC7C(C6)C7(F)F)c5)cc4F)ncnc3cc2OC)CC1 (centres unmarked) [Example 160, 1-(4-((4-((4-((2-(6,6-difluoro-3-azabicyclo[3.1.0]hexan-3-yl)pyridin-4-yl)oxy)-2-fluorophenyl)amino)-7-methoxyquinazolin-6-yl)amino)piperidin-1-yl)prop-2-en-1-one]"
